Laboratory results: ChEMBL document CHEMBL1201862, “PubChem BioAssay data set” (2004)
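Interpolation was linear, between the two tested concentrations surrounding the appropriate level; five concentrations were tested over 48 hours in 96-well plates. GI50 = concentration required for 50% inhibition of growth.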 Active and inactive are the calls of the source. Cut-off read from the data, not from the text of the source: active = GI50 up to about 1.1 µM and inactive = higher.

How the values were obtained:
Assay in all cases: growth of human tumour cells (NCI), 48 h
[1] = test system: MDA-MB-435
[2] = test system: NCI/ADR-RES
[3] = test system: NCI-H23
[4] = test system: Malme-3M
[5] = test system: UO-31
[6] = test system: OVCAR-8
[7] = test system: HCT-15
[8] = test system: HL-60
[9] = test system: CAKI-1
[10] = test system: CCRF-CEM
[11] = test system: SK-OV-3
[12] = test system: DU-145
[13] = test system: T47D
[14] = test system: A549
[15] = test system: SN12C
[16] = test system: MDA-MB-231
[17] = test system: SF-268
[18] = test system: MOLT-4
[19] = test system: NCI-H226
[20] = test system: SR

SMILES	GI50 [1]	GI50 [2]	GI50 [3]	GI50 [4]	GI50 [5]	GI50 [6]	GI50 [7] [µM]	GI50 [8]	GI50 [9]	GI50 [10]	GI50 [11]	GI50 [12]	GI50 [13]	GI50 [14]	GI50 [15]	GI50 [16]	GI50 [17]	GI50 [18]	GI50 [19]	GI50 [20]
CCOC(=O)c1nc2ccc(C(F)(F)F)cc2nc1Nc1ccc(F)cc1	> 100 µM (inactive)	> 100 µM (inactive)	40.3 µM (inactive)	> 100 µM (inactive)	49.5 µM (inactive)	47.6 µM (inactive)	> 100	> 100 µM (inactive)	> 100 µM (inactive)	> 10 µM (inactive)	> 100 µM (inactive)	> 100 µM (inactive)	> 100 µM (inactive)	28.8 µM (inactive)	> 100 µM (inactive)	> 10 µM (inactive)	52.1 µM (inactive)	> 100 µM (inactive)	–	–
CCCCCCC(C)CC(CCCCCC)NCCOC(=O)c1ccc([N+](=O)[O-])cc1 (configuration not stated)	–	21.3 µM (inactive)	18 µM (inactive)	13.7 µM (inactive)	11.6 µM (inactive)	10.2 µM (inactive)	14.3	–	–	2.69 µM (inactive)	16.3 µM (inactive)	15.6 µM (inactive)	15.6 µM (inactive)	15.6 µM (inactive)	12.4 µM (inactive)	10.4 µM (inactive)	16.3 µM (inactive)	–	14.1 µM (inactive)	–
COC(=O)[C@H](COC(C)(C)C)NC(=O)N[C@H](C)c1ccccc1	> 100 µM (inactive)	> 100 µM (inactive)	> 100 µM (inactive)	–	> 100 µM (inactive)	> 100 µM (inactive)	> 100	> 100 µM (inactive)	> 100 µM (inactive)	> 100 µM (inactive)	> 100 µM (inactive)	> 100 µM (inactive)	–	> 100 µM (inactive)	> 100 µM (inactive)	> 100 µM (inactive)	> 100 µM (inactive)	> 100 µM (inactive)	> 100 µM (inactive)	> 100 µM (inactive)
COC(=O)c1cc(S(=O)(=O)NC2=NNC(C)CN2)c(S)cc1Cl (configuration not stated)	40.3 µM (inactive)	39.8 µM (inactive)	44.8 µM (inactive)	24 µM (inactive)	99.3 µM (inactive)	34.8 µM (inactive)	37.8	> 100 µM (inactive)	> 100 µM (inactive)	84.1 µM (inactive)	> 100 µM (inactive)	78.9 µM (inactive)	–	30.1 µM (inactive)	> 100 µM (inactive)	> 100 µM (inactive)	13.5 µM (inactive)	77.3 µM (inactive)	–	37.5 µM (inactive)
CN1C(=O)CCC1(O)C1C=CC=CC1 (configuration not stated)	–	–	> 100 µM (inactive)	> 100 µM (inactive)	> 100 µM (inactive)	> 100 µM (inactive)	> 100	> 100 µM (inactive)	> 100 µM (inactive)	> 100 µM (inactive)	> 100 µM (inactive)	–	–	> 100 µM (inactive)	> 100 µM (inactive)	–	> 100 µM (inactive)	> 100 µM (inactive)	> 100 µM (inactive)	> 100 µM (inactive)
Cc1ccc(S(=O)(=O)OC2CSSCC2OS(=O)(=O)c2ccc(C)cc2)cc1 (configuration not stated)	–	–	17.9 µM (inactive)	19.2 µM (inactive)	15.2 µM (inactive)	13.3 µM (inactive)	10.2	2.62 µM (inactive)	12.5 µM (inactive)	4.35 µM (inactive)	20.5 µM (inactive)	–	–	18 µM (inactive)	11.3 µM (inactive)	–	14.7 µM (inactive)	2.59 µM (inactive)	17.9 µM (inactive)	7.69 µM (inactive)
Cc1nnc2n1N=C(c1cc(F)c(Cl)cc1Cl)/C(=C/c1ccc(-c3ccc([N+](=O)[O-])cc3)o1)S2	50.4 µM (inactive)	> 100 µM (inactive)	34.3 µM (inactive)	> 100 µM (inactive)	85.3 µM (inactive)	35.7 µM (inactive)	53.5	46.3 µM (inactive)	> 100 µM (inactive)	37.2 µM (inactive)	> 100 µM (inactive)	–	28.6 µM (inactive)	> 100 µM (inactive)	35.3 µM (inactive)	–	> 100 µM (inactive)	29.2 µM (inactive)	–	34.2 µM (inactive)
c1csc(-c2ccsc2-c2cccs2)c1	24.4 µM (inactive)	43.3 µM (inactive)	13.3 µM (inactive)	–	39.5 µM (inactive)	> 100 µM (inactive)	31	30.5 µM (inactive)	> 100 µM (inactive)	76.9 µM (inactive)	> 100 µM (inactive)	> 100 µM (inactive)	29.9 µM (inactive)	19.2 µM (inactive)	> 100 µM (inactive)	–	> 100 µM (inactive)	11.9 µM (inactive)	46.8 µM (inactive)	1.18 µM (inactive)
C[C@@H](Oc1ccc(Oc2cnc3ccc(Cl)cc3n2)cc1)C(=O)O [R(+)XK469]	> 100 µM (inactive)	> 100 µM (inactive)	> 100 µM (inactive)	> 100 µM (inactive)	> 100 µM (inactive)	> 100 µM (inactive)	> 100	37.1 µM (inactive)	> 100 µM (inactive)	97.3 µM (inactive)	> 100 µM (inactive)	> 100 µM (inactive)	> 100 µM (inactive)	55.5 µM (inactive)	> 100 µM (inactive)	–	> 100 µM (inactive)	> 100 µM (inactive)	–	> 100 µM (inactive)
